{"source": "patent US20210254014A1", "about": "“GROWTH INHIBITOR” (Kyoto University, priority 2018, published 2021)", "key": {"[1]": {"tested_on": "rat myoblasts", "settings": "cited from earlier work"}, "[2]": {"tested_on": "grafts", "test": "Autopsy findings and immunohistological staining of grafts excised 5 weeks after transplantation", "assay_type": "in vivo, mice", "settings": "cell population treated with 1 μM for 12 days, compared with untreated cell population", "description": "(§1) The insulin-producing cell population obtained by culture in the medium for induction of differentiation containing CAS192705-79-6 in the preceding section (1) or an insulin-producing cell population obtained by culture in a medium for induction of differentiation free from CAS192705-79-6 as a comparative example was transplanted beneath the capsule of the kidney using immunodeficient NOD/SCID mice having streptozotocin-induced insulin-deficient diabetes mellitus. For follow-up after the transplantation, human C-peptide concentrations in blood and blood glucose levels were measured. The grafts were excised 5 weeks after the transplantation.\nThe excised grafts were fixed and dehydrated, and then, frozen sections were prepared and subjected to immunohistological staining in order to evaluate unintended cells. The cells of interest that could be expected to maturate into pancreatic islet cells in vivo were evaluated using insulin positivity (and NKX6.1 positivity) or glucagon positivity as an indicator, and unintended cells having the possibility of adversely affecting long-term graft survival of the cells of interest were evaluated using Ki67 positivity as an indicator."}, "[3]": {"tested_on": "Ki67-positive cells", "test": "Ki67-positive cells by flow cytometry, timing of treatment during insulin-producing cell production (Example 2)", "assay_type": "cell-based", "settings": "1 μM, mean ± SD of three experiments, absent control 7.57 ± 1.05%", "procedure": "(§2) 1) An endocrine progenitor cell population obtained by the induction of differentiation from iPS cells were cultured for 11 days in a medium for induction of differentiation (Improved MEM/1% B27/Penicillin Streptomycin) containing differentiation factors (ALK5 inhibitor II, T3, LDN, γ-secretase inhibitor RO, and ascorbic acid) and an FGF receptor 1 inhibitor (CAS192705-79-6) to obtain an insulin-producing cell population.\n(§3) 2) An endocrine progenitor cell population obtained by the induction of differentiation from iPS cells were cultured for 4 days in a medium for induction of differentiation (Improved MEM/1% B27/Penicillin Streptomycin) containing differentiation factors (ALK5 inhibitor II, T3, LDN, γ-secretase inhibitor RO, and ascorbic acid) and thereby induced to differentiate into an insulin-producing cell population. Subsequently, an FGF receptor 1 inhibitor (CAS192705-79-6, 1 μM) was added to a medium for induction of differentiation (Improved MEM/1% B27/Penicillin Streptomycin) containing differentiation factors (ALK5 inhibitor II, T3, LDN, γ-secretase inhibitor RO, and ascorbic acid), and the cells were cultured therein for 7 days.\nas §3, with “3) An” for “2) An”, “for 7” for “for 4”, “for 4” for “for 7”, “days. […]” for “days.”\nThe number of Ki67-positive cells in the cell population obtained by each of the above methods 1), 2), and 3) was counted by flow cytometry to determine the proportion of Ki67-positive cells in each cell population."}, "[4]": {"tested_on": "insulin-positive (and NKX6.1-positive) cells", "test": "Insulin-positive (and NKX6.1-positive) cells by flow cytometry, timing of treatment (Example 2)", "assay_type": "cell-based", "settings": "1 μM, relative value, untreated control defined as 100%", "procedure": "as §2, §3\n3) An endocrine progenitor cell population obtained by the induction of differentiation from iPS cells were cultured for 7 days in a medium for induction of differentiation (Improved MEM/1% B27/Penicillin Streptomycin) containing differentiation factors (ALK5 inhibitor II, T3, LDN, γ-secretase inhibitor RO, and ascorbic acid) and thereby induced to differentiate into an insulin-producing cell population. […]\nThe number of insulin-positive (and NKX6.1-positive) cells in the cell population obtained by each of the above methods 1), 2), and 3) was counted by flow cytometry. The proportion of insulin-positive (and NKX6.1-positive) cells in each method was calculated as a relative value when the number of insulin-positive (and NKX6.1-positive) cells in the control cell population obtained by the above method 4) was defined as 100%."}, "[5]": {"tested_on": "Ki67-positive cells", "test": "Ki67-positive cells by flow cytometry in the insulin-producing cell population obtained by treating an endocrine progenitor cell population for 12 days (Example 1)", "assay_type": "cell-based, human", "settings": "1 μM, mean ± standard deviation of five experiments, absent control 10.78 ± 4.09%", "procedure": "The induction of differentiation of the endocrine progenitor cell population into an insulin-producing cell population was carried out according to the above step 6) or the previous report (Nature Biotechnology 2014; 32: 1121-1133).\nas §2, with “The” for “1) An”, “12” for “11”, “population. The number of Ki67-positive cells in the obtained cell population was evaluated by flow cytometry.” for “population.”"}, "[6]": {"tested_on": "rat myoblasts", "settings": "cited from earlier work", "remark": "listed apart in the source"}, "[7]": {"tested_on": "immunodeficient NOD/SCID mice having streptozotocin-induced insulin-deficient diabetes mellitus", "test": "Transplantation of the FGF receptor 1 inhibitor-treated insulin-producing cell population beneath the kidney capsule; human C-peptide in blood and blood glucose", "assay_type": "in vivo", "settings": "cell population treated with 1 μM for 12 days", "procedure": "In the description below, the preparation of mice and the transplantation of cells were performed in accordance with known methods.\nas §1, with “The grafts were excised 5 weeks after the transplantation.” left out"}, "[8]": {"tested_on": "Ki67-positive cells", "test": "Ki67-positive cells by flow cytometry after 4 days of treatment with FGFR1 inhibitors at three concentrations (Example 3)", "assay_type": "cell-based", "procedure": "The number of Ki67-positive cells in the obtained cell population was evaluated by flow cytometry."}, "[9]": {"tested_on": "human placental blood vessels", "settings": "cited from earlier work"}, "[10]": {"tested_on": "endocrine progenitor cells derived from human iPS cells", "settings": "cited from earlier work"}, "[11]": {"settings": "Table 4, 0.3 μM, absent control 4.13%"}, "[12]": {"settings": "Table 4, 1 μM, absent control 4.13%"}}, "data": [{"compound": "COc1cc(OC)cc(-c2cc3cnc(N)nc3nc2NC(=O)NC(C)(C)C)c1", "note": "[CAS192705-79-6, 1-[2-amino-6-(3,5-dimethoxyphenyl)-pyrido(2,3-d)pyrimidin-7-yl]-3-tert-butylurea]", "values": [{"measurement": "Cell proliferation caused by PDGE stimulation", "setting": "[1]", "result": "not inhibit cell proliferation caused by PDGE stimulation"}, {"measurement": "Bloatedness of the grafts", "setting": "[2]", "result": "drastic inhibition of bloatedness of the grafts"}, {"measurement": "Proportion of Ki67-positive cells", "setting": "[3]; for last 4 days", "result": "0.57 ± 0.15", "unit": "%"}, {"measurement": "Proportion of Ki67-positive cells", "setting": "[3]; for last 7 days", "result": "0.47 ± 0.15", "unit": "%"}, {"measurement": "Proportion of Ki67-positive cells", "setting": "[3]; from start (11 days)", "result": "0.57 ± 0.35", "unit": "%"}, {"measurement": "Proportion of insulin-positive (and NKX6.1-positive) cells", "setting": "[4]; for last 4 days", "result": "91 ± 16", "unit": "%"}, {"measurement": "Proportion of insulin-positive (and NKX6.1-positive) cells", "setting": "[4]; for last 7 days", "result": "88 ± 13", "unit": "%"}, {"measurement": "Proportion of insulin-positive (and NKX6.1-positive) cells", "setting": "[4]; from start (11 days)", "result": "45 ± 15", "unit": "%"}, {"measurement": "Content percentage of Ki67-positive cells (before transplantation)", "setting": "[5]", "result": "0.98 ± 0.29", "unit": "%"}, {"measurement": "Cell proliferation caused by bFGF stimulation", "setting": "[6]", "result": "inhibit cell proliferation caused by bFGF stimulation"}, {"measurement": "Human C-peptide concentration in blood 4 months after transplantation", "setting": "[7]; transplanted beneath the kidney capsule, untreated cells 1440 ± 573", "result": "1486 ± 305", "unit": "pM"}, {"measurement": "Blood glucose level 4 months after transplantation", "setting": "[7]; 4 months later, untreated cells 85 ± 16", "result": "86 ± 22", "unit": "mg/dL"}, {"measurement": "Blood glucose level at time of transplantation", "setting": "[7]; at time of transplantation (baseline)", "result": "516 ± 33", "unit": "mg/dL"}, {"measurement": "Proportion of Ki67-positive cells (%)", "setting": "[8]; Table 4, 0.1 μM, absent control 4.13%", "result": "2.15%;"}, {"measurement": "Proportion of Ki67-positive cells (%)", "setting": "[8]; [11]", "result": "0.99%;"}, {"measurement": "Proportion of Ki67-positive cells (%)", "setting": "[8]; [12]", "result": "0.7%;"}, {"measurement": "Elongation of microvessels", "setting": "[9]", "result": "inhibit the elongation of microvessels"}, {"measurement": "Differentiation of endocrine progenitor cells", "setting": "[10]", "result": "can be promoted"}]}, {"compound": "COCCCOc1ccnc(C[S+]([O-])c2nc3ccccc3[nH]2)c1C", "note": "(stereo not drawn) [E-3810]", "values": [{"measurement": "Proportion of Ki67-positive cells (%)", "setting": "[8]; [11]", "result": "2.74%;"}, {"measurement": "Proportion of Ki67-positive cells (%)", "setting": "[8]; [12]", "result": "1.51%;"}, {"measurement": "Proportion of Ki67-positive cells (%)", "setting": "[8]; Table 4, 10 μM, absent control 4.13%", "result": "0.67%;"}]}, {"compound": "CCN(CC)CCCCNc1ncc2cc(-c3cc(OC)cc(OC)c3)c(NC(=O)NC(C)(C)C)nc2n1", "note": "[PD-173074]", "values": [{"measurement": "Proportion of Ki67-positive cells (%)", "setting": "[8]; Table 5, 0.1 μM, absent control 2.7%", "result": "0.7%;"}, {"measurement": "Proportion of Ki67-positive cells (%)", "setting": "[8]; Table 5, 1 μM, absent control 2.7%", "result": "0.7%;"}, {"measurement": "Proportion of Ki67-positive cells (%)", "setting": "[8]; Table 5, 5 μM, absent control 2.7%", "result": "0.5%;"}]}]}
